The text below walks through data of patent US8044056B2, “Adenine compound” (priority 2007, dated 2011).

This assay addresses T1, Human TLR7 (Homo sapiens, UniProt Q9NYK1).
T1 construct: expressed in transfected cells; host or cells: HEK293 (hTLR7/seap-293)
T1 sequence (Q9NYK1 27-1049): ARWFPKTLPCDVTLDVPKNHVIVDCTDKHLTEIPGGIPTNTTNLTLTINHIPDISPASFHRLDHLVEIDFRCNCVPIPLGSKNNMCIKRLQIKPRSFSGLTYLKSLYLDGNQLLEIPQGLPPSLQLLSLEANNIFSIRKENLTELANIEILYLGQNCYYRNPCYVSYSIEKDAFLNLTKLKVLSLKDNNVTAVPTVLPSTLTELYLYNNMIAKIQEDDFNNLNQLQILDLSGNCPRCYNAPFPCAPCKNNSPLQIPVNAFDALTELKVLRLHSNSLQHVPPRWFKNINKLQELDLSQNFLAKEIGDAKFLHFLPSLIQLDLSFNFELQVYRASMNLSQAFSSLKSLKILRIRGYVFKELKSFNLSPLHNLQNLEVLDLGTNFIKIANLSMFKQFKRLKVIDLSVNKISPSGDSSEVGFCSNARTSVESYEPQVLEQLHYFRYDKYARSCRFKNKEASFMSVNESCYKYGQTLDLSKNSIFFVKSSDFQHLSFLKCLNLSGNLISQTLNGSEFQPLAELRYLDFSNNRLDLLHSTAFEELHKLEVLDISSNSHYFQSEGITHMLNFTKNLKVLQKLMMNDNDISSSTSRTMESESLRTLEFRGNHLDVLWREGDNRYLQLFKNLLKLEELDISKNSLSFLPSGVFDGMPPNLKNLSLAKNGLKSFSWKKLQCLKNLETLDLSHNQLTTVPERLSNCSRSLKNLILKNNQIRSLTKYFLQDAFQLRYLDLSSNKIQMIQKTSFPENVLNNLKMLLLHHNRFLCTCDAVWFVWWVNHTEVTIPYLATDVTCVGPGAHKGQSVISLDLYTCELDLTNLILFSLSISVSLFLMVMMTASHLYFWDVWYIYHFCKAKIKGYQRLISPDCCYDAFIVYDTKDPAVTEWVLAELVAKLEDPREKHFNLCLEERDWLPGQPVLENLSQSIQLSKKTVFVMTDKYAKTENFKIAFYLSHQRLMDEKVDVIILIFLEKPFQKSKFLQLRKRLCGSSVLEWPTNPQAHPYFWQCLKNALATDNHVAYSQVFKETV
Nature of the assay: Human TLR7 reporter assay (NF-kB-SEAP). As to conditions: HEK293 cells stably carrying human TLR7 plasmid and NF-kB-SEAP reporter; 20 hours incubation; 1 nM-10 μM; absorbance 405 nm; read-out: Human TLR7 binding activity (pEC50) (converted). It counts as cell-based. On the procedure:
Human TLR7 or rat TLR7 plasmid and a reporter plasmid (NF-kB-SEAP) stably-induced HEK293 cells were suspended in DMEM media (10% FBS, 1% NEAA, 10 μg/mL blastocidin S HCl, 100 ug/mL Zeocin), and the suspension was seeded on a 96-well plate in an amount of 90 μl/well (hTLR7/seap-293: 20000 cells/well, rTLR7/seap-293: 25000 cells/well).
To the cells seeded on the 96-well plate was added a test compound wherein DMSO stock solution (2 μl) was hundredfold diluted with medium (200 μl) in an amount of 10 μl/well (final concentration; 1 nM-10 μM, common ratio 3). The mixture was stirred by tapping in the side of the plate, and then incubated for 20 hours in a CO2 incubator. To the cells stimulated by a test compound was added a substrate for reporter assay (substrate for SEAP, pNPP) in an amount of 50 μl/well. Ten minutes after the addition of the substrate, a quenching solution (4N NaOH) was added in an amount of 50 μl/well, and the enzymatic reaction was quenched. Top seal A was attached on the plate, and the absorbance was measured by microplate reader (405 nm).
Turning to `CCCCOc1nc(N)c2[nH]c(=O)n(CCCCCCCN3CCN(c4ccc(OC)cc4)CC3)c2n1` [Example 8, 2-Butoxy-7,8-dihydro-9-(7-[4-(4-methoxyphenyl)piperazin-1-yl]heptyl)-8-oxoadenine], the EC50 is 251 nM.

Turning to `CCCCOc1nc(N)c2[nH]c(=O)n(CCCN3CCN(C/C=C/c4ccccc4)CC3)c2n1` [Example 4, 2-Butoxy-9-(3-[4-cinnamylpiperazin-1-yl]propyl)-7,8-dihydro-8-oxoadenine], the EC50 is 794 nM.

Turning to `CCCCOc1nc(N)c2[nH]c(=O)n(CCCCCCCN3CCC(Oc4ccc(Cl)cc4C)CC3)c2n1` [Example 7, 2-Butoxy-9-(7-[4-(4-chloro-2-methylphenoxy)piperidin-1-yl]heptyl)-7,8-dihydro-8-oxoadenine], the EC50 is 631 nM.

Take `CCCCOc1nc(N)c2[nH]c(=O)n(CCCCCCCN3CCN(c4ccc(C(C)=O)cc4)CC3)c2n1` [Example 5, 9-(7-[4-(4-Acetylphenyl)piperazin-1-yl]heptyl-2-butoxy-7,8-dihydro)-8-oxoadenine]: the EC50 is 158 nM.

On to `CCCCOc1nc(N)c2[nH]c(=O)n(CCCCCCCN3CCN(c4ccncc4)CC3)c2n1` [Example 6, 2-Butoxy-7,8-dihydro-9-(7-[4-(4-pyridyl)piperazin-1-yl]heptyl)-8-oxoadenine], for which the EC50 is 31.6 nM.
